Results reported in ChEMBL document CHEMBL1201862, “PubChem BioAssay data set” (2004).
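Five concentrations, 48 hours, 96-well plates. GI50: concentration for 50% inhibition of growth.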 Active and inactive are the calls of the source. Rule as the data show it: active = GI50 up to about 1.1 µM and inactive = higher.

Experiments:
Assay in all cases: NCI tumour cell line growth inhibition, 48 h
LOX IMVI = system: LOX IMVI
OVCAR-3 = system: OVCAR-3
RPMI-8226 = system: RPMI-8226
SK-MEL-5 = system: SK-MEL-5
OVCAR-5 = system: OVCAR-5
UO-31 = system: UO-31
HL-60 = system: HL-60
SF-295 = system: SF-295
NCI-H460 = system: NCI-H460
DMS-273 = system: DMS-273
ACHN = system: ACHN
HCT-15 = system: HCT-15
MOLT-4 = system: MOLT-4
EKVX = system: EKVX
SK-OV-3 = system: SK-OV-3
CCRF-CEM = system: CCRF-CEM
Malme-3M = system: Malme-3M
HCC 2998 = system: HCC 2998
SW-620 = system: SW-620
SF-539 = system: SF-539
IGROV-1 = system: IGROV-1
KM12 = system: KM12
M19-MEL = system: M19-MEL
U-251 = system: U-251
SNB-19 = system: SNB-19
NCI-H522 = system: NCI-H522
KM-20L2 = system: KM-20L2
HT-29 = system: HT-29
CAKI-1 = system: CAKI-1
SNB-78 = system: SNB-78
786-0 = system: 786-0
OVCAR-4 = system: OVCAR-4
COLO 205 = system: COLO 205
K562 = system: K562
NCI-H226 = system: NCI-H226
HOP-62 = system: HOP-62
SN12C = system: SN12C
A498 = system: A498
A549 = system: A549
UACC-257 = system: UACC-257
SR = system: SR
SK-MEL-2 = system: SK-MEL-2
RXF 393 = system: RXF 393
SNB-75 = system: SNB-75
DMS-114 = system: DMS-114
LXFL 529 = system: LXFL 529
NCI-H23 = system: NCI-H23
DLD-1 = system: DLD-1
SK-MEL-28 = system: SK-MEL-28
OVCAR-8 = system: OVCAR-8
TK-10 = system: TK-10
M14 = system: M14
HCT-116 = system: HCT-116
DU-145 = system: DU-145
MDA-N = system: MDA-N
NCI/ADR-RES = system: NCI/ADR-RES
SF-268 = system: SF-268
BT-549 = system: BT-549
Hs-578T = system: Hs-578T
UACC-62 = system: UACC-62
PC-3 = system: PC-3
MCF7 = system: MCF7
HOP-92 = system: HOP-92
T47D = system: T47D
MDA-MB-435 = system: MDA-MB-435
MDA-MB-231 = system: MDA-MB-231
XF498 = system: XF498

Measured: GI50

COc1cc([C@@H]2c3cc4c(cc3[C@@H](NCCCN(C)C)[C@H]3COC(=O)[C@H]23)OCO4)cc(OC)c1O
inactive: OVCAR-5 1.34 µM | HT-29 1.62 µM
0.847 µM: HCT-15
active: LOX IMVI 0.359 µM | OVCAR-3 0.729 µM | RPMI-8226 0.48 µM | SK-MEL-5 0.264 µM | UO-31 0.44 µM | HL-60 0.0447 µM | SF-295 0.17 µM | NCI-H460 0.0252 µM | DMS-273 0.141 µM | ACHN 0.11 µM | MOLT-4 0.0436 µM | EKVX 0.526 µM | SK-OV-3 0.248 µM | CCRF-CEM 0.0785 µM | Malme-3M 0.242 µM | HCC 2998 0.51 µM | SW-620 0.381 µM | SF-539 0.399 µM | IGROV-1 0.337 µM | KM12 0.632 µM | M19-MEL 0.569 µM | U-251 0.223 µM | SNB-19 0.376 µM | NCI-H522 0.525 µM | KM-20L2 0.834 µM

O=[N+]([O-])C=C(c1ccc(Cl)cc1)c1ccc(Cl)cc1
inactive: LOX IMVI 12.7 µM | OVCAR-3 > 10 µM | CAKI-1 16.6 µM | SNB-78 18.2 µM | RPMI-8226 11.2 µM | 786-0 16.5 µM | OVCAR-4 13.5 µM | COLO 205 3.85 µM | K562 21.3 µM | OVCAR-5 14.5 µM | NCI-H226 16.7 µM | UO-31 14.2 µM | HOP-62 18.6 µM | HL-60 17.1 µM | SN12C 19.5 µM | A498 20 µM | A549 19.7 µM | SF-295 18.5 µM | NCI-H460 20.3 µM | UACC-257 20.8 µM | DMS-273 5.69 µM | SR 19.5 µM | ACHN 16.7 µM | MOLT-4 17.9 µM | SK-MEL-2 29.2 µM | RXF 393 18.7 µM | EKVX 17.5 µM | SNB-75 21.7 µM | DMS-114 15.2 µM | CCRF-CEM 22 µM | LXFL 529 15.1 µM | HCC 2998 19 µM | NCI-H23 9.68 µM | SW-620 16.2 µM | SF-539 17 µM | DLD-1 13.9 µM | SK-MEL-28 16.8 µM | IGROV-1 28.1 µM | KM12 14.6 µM | OVCAR-8 17.6 µM | TK-10 19.4 µM | U-251 16.1 µM | SNB-19 18.5 µM | NCI-H522 14.4 µM | M14 14.8 µM | KM-20L2 18.9 µM | HT-29 18.9 µM | HCT-116 17.7 µM
17.2 µM: HCT-15

CCOC(=O)/C=C(/C(=O)OCC)n1cc(C)c(=O)n(/C(=C/C(=O)OCC)C(=O)OCC)c1=O
inactive: LOX IMVI 1.74 µM | OVCAR-3 2.79 µM | DU-145 13.7 µM | RPMI-8226 1.88 µM | 786-0 1.28 µM | OVCAR-4 8.47 µM | MDA-N 3.78 µM | NCI/ADR-RES 8.36 µM | SK-MEL-5 7.31 µM | COLO 205 1.32 µM | K562 1.58 µM | SF-268 8.45 µM | OVCAR-5 6.62 µM | NCI-H226 6.01 µM | UO-31 5.31 µM | HOP-62 24.8 µM | BT-549 5.79 µM | SN12C 2.98 µM | Hs-578T 6.4 µM | A498 19.8 µM | UACC-62 5.97 µM | A549 15.9 µM | PC-3 5.22 µM | SF-295 18.7 µM | NCI-H460 16.1 µM | UACC-257 4.9 µM | SR 1.89 µM | ACHN 1.89 µM | MCF7 1.91 µM | MOLT-4 1.32 µM | SK-MEL-2 14.7 µM | RXF 393 1.8 µM | EKVX 3.06 µM | SK-OV-3 17.5 µM | SNB-75 9.73 µM | Malme-3M 1.85 µM | HCC 2998 9.48 µM | NCI-H23 4.03 µM | SW-620 1.22 µM | HOP-92 1.52 µM | T47D 2.64 µM | SF-539 8.85 µM | SK-MEL-28 2.19 µM | IGROV-1 4.75 µM | KM12 13.9 µM | OVCAR-8 5.35 µM | TK-10 2.08 µM | U-251 6.93 µM | SNB-19 19.8 µM | M14 2.31 µM | MDA-MB-435 2.5 µM | MDA-MB-231 3.4 µM | HT-29 2.69 µM | HCT-116 1.91 µM
active: CAKI-1 0.887 µM | HL-60 0.255 µM | CCRF-CEM 0.354 µM | NCI-H522 0.49 µM
1.56 µM: HCT-15

NC(=O)NC1C(C(=O)O)N(Cc2ccccc2)C(=O)N1Cc1ccccc1 (stereo not given)
> 100 µM: HCT-15
inactive: LOX IMVI > 100 µM | OVCAR-3 > 100 µM | CAKI-1 > 100 µM | SNB-78 > 100 µM | RPMI-8226 > 100 µM | 786-0 > 100 µM | OVCAR-4 > 100 µM | SK-MEL-5 > 100 µM | COLO 205 > 100 µM | K562 > 100 µM | SF-268 > 100 µM | OVCAR-5 > 100 µM | NCI-H226 > 100 µM | UO-31 > 100 µM | HOP-62 > 100 µM | HL-60 > 100 µM | UACC-62 > 100 µM | A549 > 100 µM | SF-295 > 100 µM | NCI-H460 > 100 µM | UACC-257 > 100 µM | SR > 100 µM | ACHN > 100 µM | MOLT-4 3.72 µM | SK-MEL-2 > 100 µM | EKVX > 100 µM | SK-OV-3 > 100 µM | SNB-75 > 100 µM | DMS-114 > 100 µM | CCRF-CEM > 100 µM | Malme-3M > 100 µM | LXFL 529 > 100 µM | HCC 2998 > 100 µM | NCI-H23 > 100 µM | SW-620 > 100 µM | HOP-92 > 100 µM | SF-539 > 100 µM | DLD-1 > 100 µM | SK-MEL-28 > 100 µM | IGROV-1 > 100 µM | KM12 > 100 µM | OVCAR-8 > 100 µM | TK-10 > 100 µM | XF498 > 100 µM | M19-MEL > 100 µM | U-251 > 100 µM | SNB-19 > 100 µM | NCI-H522 > 100 µM | M14 > 100 µM | KM-20L2 > 100 µM | HT-29 > 100 µM | HCT-116 > 100 µM

COS(=O)c1cc(Cl)cc(Cl)c1O (stereo not given)
inactive: LOX IMVI > 100 µM | OVCAR-3 > 100 µM | OVCAR-4 > 100 µM | K562 > 100 µM | SF-268 > 100 µM | OVCAR-5 > 100 µM | UO-31 > 100 µM | HOP-62 > 100 µM | HL-60 > 100 µM | SN12C > 100 µM | A498 > 100 µM | UACC-62 > 100 µM | NCI-H460 > 100 µM | UACC-257 > 100 µM | SR > 100 µM | ACHN > 100 µM | MOLT-4 > 100 µM | SK-MEL-2 > 100 µM | RXF 393 > 100 µM | EKVX > 100 µM | SK-OV-3 81.7 µM | SNB-75 87.7 µM | DMS-114 > 100 µM | CCRF-CEM > 100 µM | Malme-3M > 100 µM | LXFL 529 > 100 µM | HCC 2998 > 100 µM | NCI-H23 > 100 µM | SF-539 > 100 µM | DLD-1 > 100 µM | SK-MEL-28 > 100 µM | KM12 > 100 µM | TK-10 > 100 µM | XF498 > 100 µM | M19-MEL > 100 µM | U-251 > 100 µM | SNB-19 > 100 µM | NCI-H522 18 µM | M14 > 100 µM | HT-29 > 100 µM | HCT-116 > 100 µM
